Laboratory results as given in patent US20230365899A1, “COMPOSITIONS COMPRISING BLEACHING CATALYST, MANUFACTURING PROCESS THEREOF, AND BLEACHING AND CLEANING AGENT COMPRISING SAME” (WEYLCHEM PERFORMANCE PRODUCTS GMBH, priority 2020, published 2023).
One block for each compound: values may come before it.

Columns and labels:
[1] = Reference granulation: stability of catalyst/PVOH mixture in water and on fluidised bed drying; assay type: physicochemical
Method: Similar to the process described above for granules 1-7, an aqueous solution of [Mn2(μ-O)3(Me3TACN)2](PF6)2·H2O in water and PVOH were mixed together with the other components to make the granule (corn starch and CaSO4). As the solubility of [Mn2(μ-O)3(Me3TACN)2](PF6)2·H2O in water is relatively low (1.08 wt-% in water at 20° C.—see WO2006/125517), a large amount of water needed to be added to obtain a mixture that has enough of the [Mn2(μ-O)3(Me3TACN)2](PF6)2·H2O catalyst to yield a granule comprising 2 wt-% of [Mn2(μ-O)3(Me3TACN)2](PF6)2·H2O (this would equate to 1.85 L of the aqueous solution of [Mn2(μ-O)3(Me3TACN)2](PF6)2·H2O following the same amounts of chemicals as described in the examples above).
Second observation was that the mixture of the [Mn2(μ-O)3(Me3TACN)2](PF6)2·H2O and PVOH in water was not stable.

[2] = cited from earlier work
[3] = BC-1 (tea stain on cotton) bleaching; conditions: pH 11.5, 1 g/L sodium percarbonate, 40° C., 30 min, Table 3
Method: BC-1 (tea stain on cotton) bleaching experiments were carried similarly as described in WO2014/202954. All bleaching experiments were done in duplication.
BC-1 (tea stain on cotton) bleaching was assessed at pH 11.5 in an aqueous solution containing 1 g/L nonionic formulation (Lutensol A07), 0, 1 and 2 μM [Mn2(μ-O)2(μ-CH3COO)(Me4DTNE)]Cl2), 1 g/L sodium percarbonate at 40° C. for 30 min (reference test).
Similarly, the bleaching activity of granule 9 was assessed using the same protocol, except for dissolving granule 9 in demineralised water yielding the same concentrations of catalyst as used in the reference test.

appearance after fluidised bed drying (catalyst decomposition) ([1]; granulation from dilute aqueous solution with PVOH, corn starch, CaSO4): dark brown granules
stability of mixture of catalyst and PVOH in water ([1]; room temperature): not stable
Compound: CN1CCN(C)CCN(C)CC1.CN1CCN(C)CCN(C)CC1.F[P-](F)(F)(F)(F)F.F[P-](F)(F)(F)(F)F.O.[Mn+4].[Mn+4].[O-2].[O-2].[O-2] [[Mn2(μ-O)3(Me3TACN)2](PF6)2·H2O, [Mn2(μ-O)3(Me3-TACN)2](PF6)2·H2O]
water solubility ([2]; at 20° C.): 10.8 mg/mL
solubility in water ([2]; in water at 20° C., see WO2006/125517): 1.08 wt-%

time the mixture of catalyst and PVOH in solution remained stable ([1]; room temperature): at least 4 days
Compound: CN1CCN(C)CCN(C)CC1.CN1CCN(C)CCN(C)CC1.O=S(=O)([O-])[O-].[Mn+4].[Mn+4].[O-2].[O-2].[O-2] [MnTACNSO4, [Mn2(μ-O)3(Me3TACN)2]SO4]

Compound: CC(=O)[O-].CN1CCN(C)CCN(CCN2CCN(C)CCN(C)CC2)CC1.[Cl-].[Cl-].[Mn+3].[Mn+4].[O-2].[O-2] [[Mn2(μ-O)2(μ-CH3COO)(Me4DTNE)]Cl2]
ΔR* BC-1 bleaching ([3]; 1.0 μM catalyst): 25.2 (0.1)
ΔR* BC-1 bleaching ([3]; 2.0 μM catalyst): 26.3 (0.1)
